Two compounds from ChEMBL document CHEMBL5385976, “Recognition of arylmethylidene derivatives of imidazothiazolotriazinones as novel tubulin polymerization inhibitors” (RSC Med Chem, 2024) can be followed below.

Each structure is given as a SMILES string. Calls of active or inactive are those of the source. The calls are words filed in the database; no cut-off is given here. Some results are limits rather than exact numbers.

One data set deals with COLO357. Description: Inhibition of cell growth in human COLO357 cells incubated for 72 hrs by MTT assay. Type of data set: functional, cell-based. On the technique in general: Tetrazolium assays rely on reduction of a dye to a coloured formazan, in cell work by metabolically active cells.
Another data set has as its system T47D. Put plainly: Anticancer activity against human T47D cells assessed as cell growth at 10 umol/L incubated for 48 hrs by SRB assay relative to control. To be noted: dose 10 µmol/L, read-out: Activity. Type of data set: functional. A general note: In SRB staining, fixed cells bind dye roughly in proportion to their protein.
In another data set the test system is OVCAR-8. Put plainly: Anticancer activity against human OVCAR-8 cells assessed as cell growth at 10 umol/L incubated for 48 hrs by SRB assay relative to control. Type of data set: functional. Conditions: OVCAR-8, 48 h, dose 10 µmol/L, read-out: Activity.
Data set [1] can be described thus: Inhibition of cell growth in human HaCaT cells incubated for 72 hrs by MTT assay. Type of data set: toxicity, cell-based.
The next data set relates to SK-MEL-28. Put plainly: Anticancer activity against human SK-MEL-28 cells assessed as cell growth at 10 umol/L incubated for 48 hrs by SRB assay relative to control. The format is functional. Conditions: SK-MEL-28, 48 h, dose 10 µmol/L, read-out: Activity.
Data set [2] has as its system Panel NCI-60 (60 carcinoma cell lines). Description: Antiproliferative activity against human panel NCI-60 (60 carcinoma cell lines) incubated for 48 hrs by SRB assay. The format is functional.
Data set [3] deals with HT-29. Description: Inhibition of cell growth in human HT-29 cells incubated for 72 hrs by MTT assay. Type of data set: functional, cell-based. Conditions: HT-29, 72 h.
Data set [4] concerns the target T1, Tubulin (Homo sapiens) (UniProt P68371+Q9H4B7+P0DPH7+P68366+Q13509+Q71U36+P04350+Q3ZCM7+P07437+P68363+Q9BQE3+Q6PEY2+Q13885+Q9BVA1+Q9BUF5). Description: Inhibition of tubulin polymerization in human K562 cells at 0.5 uM incubated for 24 hrs by confocal microscopy. Type of data set: cell-based.
Data set [5] has as its target T1, Tubulin (Homo sapiens). Put plainly: Inhibition of tubulin polymerization in human HT-29 cells upto 100 uM incubated for 48 hrs by Western blot analysis. Type of data set: cell-based. In general terms: Immunoblotting shows a protein as a band on a membrane.
Data set [6] concerns K562. Description: Inhibition of cell growth in human K562 cells incubated for 72 hrs by MTT assay. The format is functional, cell-based.
In data set [7] the test system is K562. Description: Antiproliferative activity against human K562 cells assessed as mean cell growth at 10 uM incubated for 48 hrs by SRB assay relative to control. The format is functional.
Another data set has as its system OVCAR-3. Put plainly: Anticancer activity against human OVCAR-3 cells assessed as cell growth at 10 umol/L incubated for 48 hrs by SRB assay relative to control. The format is functional. Conditions: OVCAR-3, 48 h, dose 10 µmol/L, read-out: Activity.
For the next data set, the system named is Panc02. Description: Inhibition of cell growth in mouse Panc02 cells incubated for 72 hrs by MTT assay. Type of data set: functional.
Data set [8] concerns HT-29. Description: Downregulation of beta-actin level in human HT-29 cells upto 100 uM incubated for 48 hrs by Western blot analysis. Type of data set: functional, cell-based.
Another data set concerns NCI-H226. Description: Antiproliferative activity against human NCI-H226 cells assessed as mean cell growth at 10 uM incubated for 48 hrs by SRB assay relative to control. The format is functional.

With `CCN1C(=O)N(CC)C2C1NN=c1s/c(=C\c3ccc(Cl)cc3Cl)c(=O)n12` (stereo not drawn), the half-inhibitory concentration (IC50) (as a rule, the concentration needed to halve the response being measured) in the data set with COLO357 (COLO357, 72 h) turned out to be 6 nM; in the data set with HT-29 [3], 5.5 nM; with K562 [6] (K562, 72 h) it was 2 nM. Further, the GI50 (commonly the concentration at which growth is held to half of that of the control) in the data set with COLO357 (COLO357, time 72 hrs) was determined as 16 nM; in data set [2], 80 nM; in the data set with K562 [6] (K562, time 72 hrs), 0.64 nM; with Panc02 it was 16 nM. Also, the growth at 10 µM with T47D amounted to 58.8%; in the data set with OVCAR-8, 10.8%; in the data set on SK-MEL-28, 45.7%; in the data set on OVCAR-3 it was 13.4%. In [1], this compound had an IC50 at 72 h of 3.5 nM. The LC50 (as a rule, the concentration that kills 50% of the test population) in [2] is above 96400 nM. The inhibition result on Tubulin (Homo sapiens) [4] and at Tubulin (Homo sapiens) [5] was “Active” each time. The Activity with K562 [7] came out at 18%. The outcome in the data set on HT-29 [8] was Active.

Take `COc1cc2c(c(OC)c1OC)-c1ccc(OC)c(=O)cc1[C@@H](NC(C)=O)CC2` [COLCHICINE]: the Activity with NCI-H226 stood at 8%.
